Literature values, collected in patent publication EP0303681B1 (priority 1987, dated 1988).

Sc1ncnc2nc[nH]c12 [6 MP, 6-mercaptopurine]
solubility in alkaline solutions (alkaline solutions): soluble | solubility in hot ethanol (hot ethanol): soluble | solubility in water (water): insoluble
